According to patent publication US8604229B2, “Lipoxin analogs and methods for the treatment of periodontal disease” (University of Southern California, priority 2000, dated 2013):

Columns and labels:
PGE2 production = experiment: PGE2 levels in air pouch exudates (EIA) after P. gingivalis; assay type: in vivo, BALB/c mice
Description: (§1) Six to eight week old male BALB/c mice were obtained from Taconic Farms (Germantown, N.Y.). Air pouches were raised on the dorsum by s.c. injection of 3 ml of sterile air on day 0 and day 3, and all experiments were carried out on day 6 (Sin, Y. M., et al. (1986) Ann. Rheum. Dis. 45, 873). Individual air pouches (one per mouse) were injected with either vehicle alone (0.1% ethanol), with 10 μg 15-R/S-methyl-LXA4-me or with 10 μg 15-epi-16-phenoxy-LXA4-me, followed by 500 μl of sterile PBS or ˜10^5 cells of P. gingivalis strain A7436 (OD600 0.9-1.0) originally obtained from the CF of a patient diagnosed with periodontitis. Mice were sacrificed 4 hr post-injection and individual air pouches were lavaged three times with sterile PBS (3 ml for each lavage) (Sin, Y. M. et al. (1986) Ann. Rheum. Dis. 45, 873; Hachicha, M., et al. (1999) J. Exp. Med. 189, 1923). […] Air pouch exudates were assessed for PGE2 using an enzyme immunoassay (EIA) kit (Cayman Chemical Co., Ann Arbor, Mich. [cross-reactivities in the PGE2 EIA kit were <0.04% for 6-keto PGF1α and <0.01% for LTB4, thromboxane B2 and arachidonic acid]). […]
Since PGE2 is associated with loss of attachment and bone loss in periodontal disease (Offenbacher, S., et al. (1992) J. Periodontal Res. 27, 207), we determined PGE2 levels in the air pouch exudates. […] Also, the expression of COX-2 was evaluated in exudate leukocytes. […]

COX-2 mRNA = experiment: COX-2 expression in air pouch exudate leukocytes (northern blot); assay type: in vivo, BALB/c mice; conditions: within the air pouch, P. gingivalis-injected mice
Description: as §1
Since PGE2 is associated with loss of attachment and bone loss in periodontal disease (Offenbacher, S., et al. (1992) J. Periodontal Res. 27, 207), we determined PGE2 levels in the air pouch exudates. […]

SMILES: CCCCCC(C)(O)/C=C/C=C\C=C\C=C\[C@@H](O)[C@@H](O)CCCC(=O)O (stereo partly drawn) [15-R/S-methyl LXA4]
- decrease of PGE2 levels in the exudates (PGE2 production; 10 μg/pouch, P. gingivalis-injected murine air pouch, 4 hr): ≤ 75%
- P. gingivalis-induced PGE2 production in murine air pouch (in words) (PGE2 production; murine air pouch exudates): inhibits
- overall expression of COX-2 in exudates (COX-2 mRNA): decreased
